Series [1] concerns methicillin-resistant Staphylococcus aureus (MRSA). The series is described as follows: Antibacterial activity against MRSA (broth microdilution). Format: cell-based. As to the method: The cytotoxicity of 1–8 and 10–15 against the A549 cell line was preliminarily evaluated via the MTT method as reported in our previous study, and the antibacterial activities of 1–15 against six bacterial strains, Acinetobacter baumannii (ATCC 19606), Staphylococcus aureus (ATCC 29213), Enterococcus faecalis (ATCC 29212), Klebsiella pneumoniae (ATCC 13883), MRSA, and Escherichia coli (ATCC 25922), were evaluated using a modification of the broth microdilution method.
(Dilution methods test growth across graded concentrations, often in twofold steps.)

The target in series [2] is acetylcholinesterase (AChE) (Homo sapiens, UniProt P22303). As to the kind of experiment: AChE inhibitory activity (modified Ellman method). Format: biochemical. The following applies: 0.1 U/mL AChE, pH 8.0, 30 °C; read-out: AChE inhibition IC50. As for the experimental part: AChE inhibitory activity was evaluated in vitro according to the modified Ellman method. Briefly, 0.1 U/mL AChE solution was prepared by dissolving in phosphate buffer (pH 8.0). The test sample and enzyme buffer were mixed in 96-well plates and incubated for 20 min at 30 °C. Then, 5,5′-dithiobis (2-nitrobenzoic acid) and acetylthiocholine iodide were added, and the enzyme reaction was allowed to proceed for 30 min at 30 °C. AChE activity was determined by measuring the degradation of acetylthiocholine iodide to thiocholine and acetic acid at 405 nm using a microplate reader.
In general terms: Ellman's reagent forms a yellow product with free thiols.

Series [3] can be described thus: Cytotoxicity against A549 cell line (MTT method). Format: cell-based. The following applies: human, A549 cells, read-out: Cytotoxic Activities A549 (IC50). On the technique in general: Tetrazolium dyes change colour on reduction, which living cells bring about.
The subject of series [4] is LPS-induced NF-κB activation in RAW264.7 cells. The series is described as follows: Inhibition of LPS-induced NF-κB activation in RAW264.7 cells (luciferase reporter gene assay). Format: cell-based. Conditions: for Inhibitory activity against LPS-induced NF-κB activation: compounds at 10 μM, 5 μg/mL LPS for 8 h; for IC50: Mus musculus, luciferase reporter. As for the experimental part:
The inhibitory activities of LPS-induced NF-κB activation in RAW264.7 cells was evaluated as detected by luciferase reporter gene assay as described previously. In brief, the RAW264.7 cells stably transfected with a luciferase reporter gene were plated in 96-well plates and then pretreated with testd compounds (10 μM) and BAY11-7082 (NF-κB inhibitor as positive control, 5 μM, Sigma-Aldrich) for 30 min, followed by 5 μg/mL LPS stimulation for 8 h. Cells were harvested, and luciferase activities of the triplicate tests were measured using the luciferase assay system (Promega, Madison, WI, USA).

The subject of series [5] is RANKL-induced osteoclast differentiation in bone marrow macrophages cells (BMMCs). The series is described as follows: RANKL-induced osteoclast differentiation in BMMCs (TRAP staining). Format: cell-based. The following applies: 5 μM, 3 days, TRAP-positive multinucleated cells. As for the experimental part:
Then, the cells were fixed and stained for TRAP activity and the images were photographed using an inverted microscope (Nikon, Tokyo, Japan). Data are expressed as the mean ± SD and analyzed using GraphPad Prism 7.0 software (GraphPad, San Diego, CA, USA). Statistical differences among groups were performed using one-way analysis of variance with a Bonferroni post-hoc test. A p-value of < 0.05 was considered statistically significant.

In brackets after ≈: the same amount, converted by molar mass.

Sequence of acetylcholinesterase (AChE) (P22303 32-614, species assumed): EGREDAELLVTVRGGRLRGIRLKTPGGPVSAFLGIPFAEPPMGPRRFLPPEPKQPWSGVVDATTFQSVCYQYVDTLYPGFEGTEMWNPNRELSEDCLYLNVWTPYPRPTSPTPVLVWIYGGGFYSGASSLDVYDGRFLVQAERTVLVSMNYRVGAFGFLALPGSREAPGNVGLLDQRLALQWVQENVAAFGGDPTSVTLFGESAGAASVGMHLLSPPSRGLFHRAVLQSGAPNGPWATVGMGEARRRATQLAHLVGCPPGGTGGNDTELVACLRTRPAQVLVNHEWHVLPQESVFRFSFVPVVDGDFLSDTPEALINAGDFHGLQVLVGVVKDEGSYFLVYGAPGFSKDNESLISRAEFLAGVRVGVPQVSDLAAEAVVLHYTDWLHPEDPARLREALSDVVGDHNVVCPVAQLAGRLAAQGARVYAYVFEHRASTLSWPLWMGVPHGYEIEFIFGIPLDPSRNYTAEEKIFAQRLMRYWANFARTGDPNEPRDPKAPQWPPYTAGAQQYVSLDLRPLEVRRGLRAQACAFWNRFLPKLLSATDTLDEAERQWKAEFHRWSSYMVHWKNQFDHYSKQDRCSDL

On to Gentamycin [reference compound], for which, in series [1], the “Antibacterial Activities MRSA (MIC, μM)” value amounted to 1.4 µM.
By IC50 is commonly meant the concentration that inhibits the measured activity by half. For the compound `CCCCCCCc1c(O)cc(CC=C(C)C)c(O)c1C=O` [Compound 3, flavoglaucin], the IC50 in series [2] is 23.9 µM; in series [3] it was 22.2 µM.
With `CCC/C=C/C=C/c1c(O)cc(CC=C(C)C)c(O)c1C=O` [Compound 6, dihydroauroglaucin], in series [2], the IC50 came to 18.6 µM.
`C/C=C/C(=O)Cc1cc(O)c(C)c(O)c1C=O` [Compound 1, (E)-2,4-dihydroxy-3-methyl-6-(2-oxopent-3-en-1-yl) benzaldehyde]: the “Inhibitory activity against LPS-induced NF-κB activation” value (“Inhibitory activity” for short) in series [4] was “obvious inhibitory activities”.
For `C/C=C/C=C/CCc1c(O)cc(CC=C(C)C)c(O)c1C=O` [Compound 4, isodihydroauroglaucin], in series [2], the IC50 came to 490 µM.
For the compound `C=CC(C)(C)c1[nH]c2ccccc2c1/C=C1\NC(=O)C(=O)NC1=O` [Compound 10, neoechinulin E], the “Inhibitory activity” value in series [4] is on record as “obvious inhibitory activities”.
For the compound `CCCCC/C=C/c1c(O)cc(CC=C(C)C)c(O)c1C=O` [Compound 5, tetrahydroauroglaucin], the IC50 in series [2] came out at 39.9 µM.
Consider `C=CC(C)(C)c1[nH]c2ccccc2c1/C=c1\[nH]c(=O)c(=C)[nH]c1=O` [Compound 14, neoechinulin B], for which the “Effect on RANKL-induced osteoclast differentiation” value in series [5] is reported as “suppressed RANKL-induced osteoclast differentiation”. Also, in series [4], half-maximal inhibition (IC50) was put at 8.7 µM and the “Inhibitory activity” value is given as “obvious inhibitory activities”.
For `C=CC(C)(C)c1[nH]c2ccccc2c1/C=C1\NC(=O)C(C)(OC)NC1=O` (stereo not drawn) [Compound 11, variecolorin H] the same measures were “suppressed RANKL-induced osteoclast differentiation”, 19.2 µM and “obvious inhibitory activities”.
As a reminder, the MIC is the lowest concentration found to suppress growth. Take `Cc1cc(=O)c2c(O)c(C)c(O)cc2o1` [Compound 2, eugenitol]: the MIC in series [1] (Staphylococcus aureus, read-out: Antibacterial Activities MRSA (MIC)) amounted to 485 µM (≈ 100 µg/mL).
